This passage reports Emax and EC50 results from patent US11485742B2, “2-azaspiro[3.4]octane derivatives as M4 agonists” (NOVARTIS AG, priority 2019, dated 2022).

The target in test [1] is T1, human cloned CHRM3 receptor (Homo sapiens, UniProt P20309).
T1 construct: expressed in transfected cells; host or cells: CHO-K1 (M3_CHO)
In words: CHRM3 Ca++ Flux Assay (M3_CHO cells, agonist mode). It is filed as cell-based. Particulars: for Emax: Percent Activity (PA) measured to EC100 of Carbachol, read-out: M3 FDSS PA %; for EC50: agonist mode, geometric mean if tested more than once, read-out: M3 FDSS EC50. The gist of the method:
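Agonist-mode calcium mobilisation: compounds, 11 concentrations in triplicate, applied to stable M3_CHO or M5_CHO cells loaded with Ca++ dye, fluorescence followed 3 min. Efficacy expressed against carbachol EC100; EC curves by four-parameter nonlinear regression, geometric mean across independent runs.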

Test [2] concerns the target T2, Cloned human M1 receptor (CHRM1) (Homo sapiens, UniProt P11229).
T2 construct: expressed in transfected cells; host or cells: HEK293
T2 sequence (P11229 1-460): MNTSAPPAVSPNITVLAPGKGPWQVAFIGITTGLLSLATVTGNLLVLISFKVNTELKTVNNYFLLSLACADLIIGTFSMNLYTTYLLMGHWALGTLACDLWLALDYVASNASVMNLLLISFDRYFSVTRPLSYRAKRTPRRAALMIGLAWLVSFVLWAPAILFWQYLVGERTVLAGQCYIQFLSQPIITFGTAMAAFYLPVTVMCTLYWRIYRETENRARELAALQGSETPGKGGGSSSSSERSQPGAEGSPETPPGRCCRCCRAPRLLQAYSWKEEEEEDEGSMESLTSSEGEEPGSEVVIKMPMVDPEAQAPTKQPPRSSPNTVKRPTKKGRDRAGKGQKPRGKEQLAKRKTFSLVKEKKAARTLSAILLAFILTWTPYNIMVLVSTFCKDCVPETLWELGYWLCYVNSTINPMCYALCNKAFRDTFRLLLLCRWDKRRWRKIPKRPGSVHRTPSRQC
In words: CHRM1 Ca++ Flux Assay (HEK293 M1 cells, agonist mode). It is filed as cell-based. The conditions noted are these: for Emax: Percent Activity (PA), read-out: M1 FDSS PA %; for EC50: geometric mean if tested more than once, read-out: M1 FDSS EC50. The gist of the method:
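In agonist mode, compound-induced intracellular Ca++ mobilization was recorded for 3 min by fluorescent imager. The cells were HEK293 stably expressing cloned human CHRM1, in Ca/Mg-free HBSS with 20 mM HEPES. Triplicate 11-point dose-responses were fitted by four-parameter regression and normalized to the carbachol EC100 response.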

T1 sequence (P20309 whole entry): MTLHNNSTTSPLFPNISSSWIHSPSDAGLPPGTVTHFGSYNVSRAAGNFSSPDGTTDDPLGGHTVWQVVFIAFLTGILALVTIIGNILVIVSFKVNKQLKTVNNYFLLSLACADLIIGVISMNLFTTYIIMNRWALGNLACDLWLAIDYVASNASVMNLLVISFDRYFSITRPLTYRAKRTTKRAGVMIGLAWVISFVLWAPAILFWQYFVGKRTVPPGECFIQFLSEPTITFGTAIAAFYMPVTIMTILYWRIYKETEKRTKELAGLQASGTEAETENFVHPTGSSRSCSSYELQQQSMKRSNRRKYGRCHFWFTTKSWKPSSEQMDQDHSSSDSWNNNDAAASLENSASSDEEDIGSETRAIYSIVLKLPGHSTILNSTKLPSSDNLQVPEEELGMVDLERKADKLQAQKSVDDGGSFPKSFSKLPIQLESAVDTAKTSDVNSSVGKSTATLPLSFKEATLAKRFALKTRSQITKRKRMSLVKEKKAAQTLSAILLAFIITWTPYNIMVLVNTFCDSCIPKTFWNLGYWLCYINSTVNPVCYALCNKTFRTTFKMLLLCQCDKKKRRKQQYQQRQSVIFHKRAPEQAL

On to `CC1(COc2ccc(F)cc2C2CCN([C@@H]3COC4(C3)CN(c3nncs3)C4)CC2)COC1` [Example 2B, (S)-7-(4-(5-fluoro-2-((3-methyloxetan-3-yl)methoxy)phenyl)piperidin-1-yl)-2-(1,3,4-thiadiazol-2-yl)-5-oxa-2-azaspiro[3.4]octane], for which, in test [1], the Emax came out at 0% and the EC50 was more than 25000 nM. In test [2], the Emax was found to be 91% and the EC50 was 1140 nM.
For `CC(C)(O)COc1ccc(F)cc1C1CCN([C@@H]2COC3(C2)CN(c2nnco2)C3)CC1` [Example 1U, (S)-1-(2-(1-(2-(1,3,4-oxadiazol-2-yl)-5-oxa-2-azaspiro[3.4]octan-7-yl)piperidin-4-yl)-4-fluorophenoxy)-2-methylpropan-2-ol], in test [1], the Emax was 0% and the concentration giving a half-maximal response (EC50) was more than 25000 nM. In test [2], the Emax amounted to 75% and the EC50 was 961 nM.
For the compound `c1ccc(C2CCN([C@@H]3COC4(C3)CN(c3nnco3)C4)CC2)c(-c2ncco2)c1` [Example 1X, (S)-2-(1,3,4-oxadiazol-2-yl)-7-(4-(2-(oxazol-2-yl)phenyl)piperidin-1-yl)-5-oxa-2-azaspiro[3.4]octane], the Emax in test [1] was 0%; in test [2], 99%. Further, the figures for the half-maximal effective concentration (EC50) in test [1] and in test [2] were more than 25000 nM and 1230 nM, respectively.
For `Fc1ccc(OCC2CC3(COC3)C2)c(C2CCN([C@@H]3COC4(C3)CN(c3nnco3)C4)CC2)c1` [Example 2S, (S)-7-(4-(2-((2-oxaspiro[3.3]heptan-6-yl)methoxy)-5-fluorophenyl)piperidin-1-yl)-2-(1,3,4-oxadiazol-2-yl)-5-oxa-2-azaspiro[3.4]octane] the same measures were 0%, 53%, more than 25000 nM and 5410 nM.
Taken in the same sequence, the figures for `Cc1nnc(COc2ccc(F)cc2C2CCN([C@@H]3COC4(C3)CN(c3nnco3)C4)CC2)s1` [Example 2E, (S)-7-(4-(5-fluoro-2-((5-methyl-1,3,4-thiadiazol-2-yl)methoxy)phenyl)piperidin-1-yl)-2-(1,3,4-oxadiazol-2-yl)-5-oxa-2-azaspiro[3.4]octane] were 0%, 112%, more than 25000 nM and 116 nM.
For the compound `COc1cc(F)ccc1C1CCN([C@@H]2COC3(C2)CN(c2nnco2)C3)CC1` [Example 1S, (S)-7-(4-(4-fluoro-2-methoxyphenyl)piperidin-1-yl)-2-(1,3,4-oxadiazol-2-yl)-5-oxa-2-azaspiro[3.4]octane], in test [1], the Emax was found to be 0% and the EC50 was more than 25000 nM. Further, in test [2], the Emax amounted to 71% and the EC50 was found to be 634 nM.

By EC50 is commonly meant the midpoint of the concentration-response curve.
